# Test results reported in ChEMBL document CHEMBL1201862, “PubChem BioAssay data set” (2004).
#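 Method: 48-hour compound exposure of cells in 96-well plates, five concentrations, linear interpolation of endpoints. GI50 is the concentration that inhibits growth by half.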 Activity calls are given as the source filed them. Rule as the data show it: active = GI50 up to about 1.1 µM and inactive = higher.
# How the values were obtained:
# Assay in all cases: NCI tumour cell line growth inhibition, 48 h
# [1] = tested on: A498
# [2] = tested on: Hs-578T
# [3] = tested on: MDA-N
# [4] = tested on: HT-29
# [5] = tested on: MDA-MB-435
# [6] = tested on: MOLT-4
# [7] = tested on: M14
# [8] = tested on: IGROV-1
# [9] = tested on: T47D
# [10] = tested on: HCC 2998
# [11] = tested on: SK-MEL-5
# [12] = tested on: SNB-75
# [13] = tested on: Malme-3M
# [14] = tested on: OVCAR-3
# [15] = tested on: BT-549
# [16] = tested on: MCF7
# [17] = tested on: SF-295
# [18] = tested on: HCT-15
# [19] = tested on: MDA-MB-231
# [20] = tested on: SR
# [21] = tested on: NCI-H460
# [22] = tested on: HL-60
# [23] = tested on: A549
# [24] = tested on: EKVX
# [25] = tested on: CAKI-1
# [26] = tested on: NCI/ADR-RES
# [27] = tested on: OVCAR-8
# [28] = tested on: DU-145
# [29] = tested on: LOX IMVI
# [30] = tested on: HOP-92
# [31] = tested on: OVCAR-4
# [32] = tested on: HCT-116
# [33] = tested on: NCI-H23
# [34] = tested on: SK-OV-3
# [35] = tested on: SW-620
# [36] = tested on: KM12
# [37] = tested on: UACC-62
# [38] = tested on: ACHN
# [39] = tested on: NCI-H522
# [40] = tested on: U-251
# [41] = tested on: UACC-257
# [42] = tested on: RXF 393
# [43] = tested on: CCRF-CEM
# [44] = tested on: K562
# [45] = tested on: 786-0
# [46] = tested on: SF-539
# [47] = tested on: NCI-H226
# [48] = tested on: TK-10
# [49] = tested on: HOP-62
# [50] = tested on: PC-3
# [51] = tested on: RPMI-8226
# [52] = tested on: SN12C
# [53] = tested on: UO-31
# [54] = tested on: COLO 205
# [55] = tested on: SNB-19
# [56] = tested on: SF-268
# [57] = tested on: OVCAR-5
# [58] = tested on: SK-MEL-2
# [59] = tested on: SK-MEL-28
smiles,measurement,setting,value
Cc1cc(C)nc(NS(=O)(=O)c2ccc(NC(=O)c3cccc4c(NNc5ccc(S(=O)(=O)N=C(N)N)cc5)c5ccccc5nc34)cc2)n1,GI50,[1],> 50 µM (inactive)
same,GI50,[2],> 50 µM (inactive)
same,GI50,[3],> 50 µM (inactive)
same,GI50,[4],> 50 µM (inactive)
same,GI50,[5],> 50 µM (inactive)
same,GI50,[6],> 50 µM (inactive)
same,GI50,[7],> 50 µM (inactive)
same,GI50,[8],> 50 µM (inactive)
same,GI50,[9],> 50 µM (inactive)
same,GI50,[10],> 50 µM (inactive)
same,GI50,[11],> 50 µM (inactive)
same,GI50,[12],41.9 µM (inactive)
same,GI50,[13],> 50 µM (inactive)
same,GI50,[14],> 50 µM (inactive)
same,GI50,[15],> 50 µM (inactive)
same,GI50,[16],> 50 µM (inactive)
same,GI50,[17],> 50 µM (inactive)
same,GI50,[18],> 50 µM
same,GI50,[19],> 50 µM (inactive)
same,GI50,[20],> 50 µM (inactive)
same,GI50,[21],> 50 µM (inactive)
same,GI50,[22],> 50 µM (inactive)
same,GI50,[23],> 50 µM (inactive)
same,GI50,[24],> 50 µM (inactive)
same,GI50,[25],> 50 µM (inactive)
same,GI50,[26],> 50 µM (inactive)
same,GI50,[27],> 50 µM (inactive)
same,GI50,[28],> 50 µM (inactive)
same,GI50,[29],> 50 µM (inactive)
same,GI50,[30],> 50 µM (inactive)
same,GI50,[31],> 50 µM (inactive)
same,GI50,[32],> 50 µM (inactive)
same,GI50,[33],> 50 µM (inactive)
same,GI50,[34],> 50 µM (inactive)
same,GI50,[35],> 50 µM (inactive)
same,GI50,[36],> 50 µM (inactive)
same,GI50,[37],> 50 µM (inactive)
same,GI50,[38],> 50 µM (inactive)
same,GI50,[39],> 50 µM (inactive)
same,GI50,[40],> 50 µM (inactive)
same,GI50,[41],> 50 µM (inactive)
same,GI50,[42],> 50 µM (inactive)
same,GI50,[43],> 50 µM (inactive)
same,GI50,[44],> 50 µM (inactive)
same,GI50,[45],> 50 µM (inactive)
same,GI50,[46],> 50 µM (inactive)
same,GI50,[47],> 50 µM (inactive)
same,GI50,[48],> 50 µM (inactive)
same,GI50,[49],> 50 µM (inactive)
same,GI50,[50],> 50 µM (inactive)
same,GI50,[51],> 50 µM (inactive)
same,GI50,[52],> 50 µM (inactive)
same,GI50,[53],48.1 µM (inactive)
same,GI50,[54],> 50 µM (inactive)
same,GI50,[55],> 50 µM (inactive)
same,GI50,[56],> 50 µM (inactive)
O=C(C[n+]1ccc2ccccc2c1)c1ccc2ccc3ccccc3c2c1,GI50,[1],4.94 µM (inactive)
same,GI50,[2],8.32 µM (inactive)
same,GI50,[3],0.647 µM (active)
same,GI50,[4],1.03 µM (active)
same,GI50,[5],0.841 µM (active)
same,GI50,[7],2.22 µM (inactive)
same,GI50,[8],2.23 µM (inactive)
same,GI50,[9],4.74 µM (inactive)
same,GI50,[10],1.66 µM (inactive)
same,GI50,[11],3.03 µM (inactive)
same,GI50,[12],5.85 µM (inactive)
same,GI50,[13],7.71 µM (inactive)
same,GI50,[14],4.15 µM (inactive)
same,GI50,[15],11.2 µM (inactive)
same,GI50,[16],2.39 µM (inactive)
same,GI50,[17],0.824 µM (active)
same,GI50,[57],5.07 µM (inactive)
same,GI50,[18],5.07 µM
same,GI50,[19],1.28 µM (inactive)
same,GI50,[20],0.406 µM (active)
same,GI50,[21],0.741 µM (active)
same,GI50,[23],3.23 µM (inactive)
same,GI50,[24],6.27 µM (inactive)
same,GI50,[25],4.9 µM (inactive)
same,GI50,[26],15.2 µM (inactive)
same,GI50,[58],4.56 µM (inactive)
same,GI50,[27],3.21 µM (inactive)
same,GI50,[28],6.19 µM (inactive)
same,GI50,[29],1.08 µM (active)
same,GI50,[30],1.62 µM (inactive)
same,GI50,[31],3.84 µM (inactive)
same,GI50,[32],0.959 µM (active)
same,GI50,[33],2.38 µM (inactive)
same,GI50,[34],6.82 µM (inactive)
same,GI50,[35],1.31 µM (inactive)
same,GI50,[36],1.33 µM (inactive)
same,GI50,[37],2.99 µM (inactive)
same,GI50,[38],2.22 µM (inactive)
same,GI50,[39],6.38 µM (inactive)
same,GI50,[40],2.21 µM (inactive)
same,GI50,[41],2.04 µM (inactive)
same,GI50,[42],5.02 µM (inactive)
same,GI50,[43],0.815 µM (active)
same,GI50,[44],0.151 µM (active)
same,GI50,[59],2.12 µM (inactive)
same,GI50,[45],1.67 µM (inactive)
same,GI50,[46],0.483 µM (active)
same,GI50,[47],7.94 µM (inactive)
same,GI50,[48],1.4 µM (inactive)
same,GI50,[49],5.94 µM (inactive)
same,GI50,[50],2.84 µM (inactive)
same,GI50,[51],0.129 µM (active)
same,GI50,[52],1.91 µM (inactive)
same,GI50,[53],4.69 µM (inactive)
same,GI50,[54],1.07 µM (active)
same,GI50,[55],2.6 µM (inactive)
same,GI50,[56],4.52 µM (inactive)
N/C(=N/c1ccc(O)cc1)S(=O)O,GI50,[1],> 100 µM (inactive)
same,GI50,[2],> 100 µM (inactive)
same,GI50,[3],> 100 µM (inactive)
same,GI50,[4],> 100 µM (inactive)
same,GI50,[5],> 100 µM (inactive)
same,GI50,[6],> 100 µM (inactive)
same,GI50,[7],> 100 µM (inactive)
same,GI50,[8],> 100 µM (inactive)
same,GI50,[9],> 100 µM (inactive)
same,GI50,[10],> 100 µM (inactive)
same,GI50,[11],> 100 µM (inactive)
same,GI50,[12],> 100 µM (inactive)
same,GI50,[13],> 100 µM (inactive)
same,GI50,[14],> 100 µM (inactive)
same,GI50,[15],> 100 µM (inactive)
same,GI50,[16],> 100 µM (inactive)
same,GI50,[17],> 100 µM (inactive)
same,GI50,[57],> 100 µM (inactive)
same,GI50,[18],> 100 µM
same,GI50,[19],> 100 µM (inactive)
same,GI50,[20],> 100 µM (inactive)
same,GI50,[22],> 100 µM (inactive)
same,GI50,[23],> 100 µM (inactive)
same,GI50,[24],> 100 µM (inactive)
same,GI50,[25],> 100 µM (inactive)
same,GI50,[26],> 100 µM (inactive)
same,GI50,[58],> 100 µM (inactive)
same,GI50,[27],> 100 µM (inactive)
same,GI50,[28],> 100 µM (inactive)
same,GI50,[29],> 100 µM (inactive)
same,GI50,[30],> 100 µM (inactive)
same,GI50,[31],> 100 µM (inactive)
same,GI50,[32],> 100 µM (inactive)
same,GI50,[33],> 100 µM (inactive)
same,GI50,[34],41.5 µM (inactive)
same,GI50,[35],> 100 µM (inactive)
same,GI50,[36],> 100 µM (inactive)
same,GI50,[37],> 100 µM (inactive)
same,GI50,[38],> 100 µM (inactive)
same,GI50,[39],> 100 µM (inactive)
same,GI50,[40],> 100 µM (inactive)
same,GI50,[41],> 100 µM (inactive)
same,GI50,[42],> 100 µM (inactive)
same,GI50,[43],89.9 µM (inactive)
same,GI50,[44],> 100 µM (inactive)
same,GI50,[59],> 100 µM (inactive)
same,GI50,[45],> 100 µM (inactive)
same,GI50,[46],> 100 µM (inactive)
same,GI50,[47],37.2 µM (inactive)
same,GI50,[48],> 100 µM (inactive)
same,GI50,[49],> 100 µM (inactive)
same,GI50,[50],> 100 µM (inactive)
same,GI50,[51],> 100 µM (inactive)
same,GI50,[52],> 100 µM (inactive)
same,GI50,[53],> 100 µM (inactive)
same,GI50,[54],> 100 µM (inactive)
same,GI50,[55],> 100 µM (inactive)
same,GI50,[56],> 100 µM (inactive)
